melting point [°C]	Compound
183 to 190	O=C(N[C@H]1[C@@H]2CNC[C@@H]21)C1c2ccccc2Oc2ccccc21 [Compound No. 6]
165	O=C(NC[C@@H]1[C@H]2CN(CCc3ccc4c(c3)CCO4)C[C@@H]12)C1c2ccccc2Oc2ccccc21 [Compound No. 11, N-[(1α,5α,6α)-3-(2-(2,3-dihydro-benzofuran-5-yl)-ethyl)-3-aza-bicyclo[3.1.0]hex-6-ylmethyl]-9H-Xanthene-9-carboxylic acid amide]
